Measured values from article PMC11420776 (RSC Advances, 2024).

Columns and labels:
OVCAR-5 (ovarian cancer) = experiment: NCI 60-cell one-dose antiproliferative screen; format: cell-based, human; details: one dose 10 μM
[1] = system: 60 human tumor cell lines; experiment: NCI 60-cell one-dose antiproliferative screen, whole panel; format: cell-based
[2] = system: NCI-H226 (NSC lung cancer); experiment: NCI 60-cell one-dose antiproliferative screen; format: cell-based, human; details: one dose 10 μM
HCT-116 (colon cancer) = experiment: NCI 60-cell one-dose antiproliferative screen; format: cell-based, human; details: one dose 10 μM
[3] = system: NCI-H322M (NSC lung cancer); experiment: NCI 60-cell one-dose antiproliferative screen; format: cell-based, human; details: one dose 10 μM
786-0 (renal cancer) = experiment: NCI 60-cell one-dose antiproliferative screen; format: cell-based, human; details: one dose 10 μM
SNB-19 (CNS cancer) = experiment: NCI 60-cell one-dose antiproliferative screen; format: cell-based, human; details: one dose 10 μM
RXF 393 (renal cancer) = experiment: NCI 60-cell one-dose antiproliferative screen; format: cell-based, human; details: one dose 10 μM
OVCAR-8 (ovarian cancer) = experiment: NCI 60-cell one-dose antiproliferative screen; format: cell-based, human; details: one dose 10 μM
[4] = system: NCI-H23 (NSC lung cancer); experiment: NCI 60-cell one-dose antiproliferative screen; format: cell-based, human; details: one dose 10 μM
EKVX (NSC lung cancer) = experiment: NCI 60-cell one-dose antiproliferative screen; format: cell-based, human; details: one dose 10 μM
HCT-15 (colon cancer) = experiment: NCI 60-cell one-dose antiproliferative screen; format: cell-based, human; details: one dose 10 μM
UO-31 (renal cancer) = experiment: NCI 60-cell one-dose antiproliferative screen; format: cell-based, human; details: one dose 10 μM
TK-10 (renal cancer) = experiment: NCI 60-cell one-dose antiproliferative screen; format: cell-based, human; details: one dose 10 μM
[5] = system: A549/ATCC (NSC lung cancer); experiment: NCI 60-cell one-dose antiproliferative screen; format: cell-based, human; details: one dose 10 μM
HT29 (colon cancer) = experiment: NCI 60-cell one-dose antiproliferative screen; format: cell-based, human; details: one dose 10 μM
UACC-257 (melanoma) = experiment: NCI 60-cell one-dose antiproliferative screen; format: cell-based, human; details: one dose 10 μM
[6] = system: NCI-H522 (NSC lung cancer); experiment: NCI 60-cell one-dose antiproliferative screen; format: cell-based, human; details: one dose 10 μM
[7] = system: MDA-MB-468 (breast cancer); experiment: NCI 60-cell one-dose antiproliferative screen; format: cell-based, human; details: one dose 10 μM
LOX IMIV (melanoma) = experiment: NCI 60-cell one-dose antiproliferative screen; format: cell-based, human; details: one dose 10 μM
ACHN (renal cancer) = experiment: NCI 60-cell one-dose antiproliferative screen; format: cell-based, human; details: one dose 10 μM
UACC-62 (melanoma) = experiment: NCI 60-cell one-dose antiproliferative screen; format: cell-based, human; details: one dose 10 μM
SK-MEL-2 (melanoma) = experiment: NCI 60-cell one-dose antiproliferative screen; format: cell-based, human; details: one dose 10 μM
OVCAR-3 (ovarian cancer) = experiment: NCI 60-cell one-dose antiproliferative screen; format: cell-based, human; details: one dose 10 μM
[8] = system: MDA-MB-231/ATCC (breast cancer); experiment: NCI 60-cell one-dose antiproliferative screen; format: cell-based, human; details: one dose 10 μM
HS 578T (breast cancer) = experiment: NCI 60-cell one-dose antiproliferative screen; format: cell-based, human; details: one dose 10 μM
MCF7 (breast cancer) = experiment: NCI 60-cell one-dose antiproliferative screen; format: cell-based, human; details: one dose 10 μM
CCRF-CEM (leukemia) = experiment: NCI 60-cell one-dose antiproliferative screen; format: cell-based, human; details: one dose 10 μM
SF-295 (CNS cancer) = experiment: NCI 60-cell one-dose antiproliferative screen; format: cell-based, human; details: one dose 10 μM
HCC-2998 (colon cancer) = experiment: NCI 60-cell one-dose antiproliferative screen; format: cell-based, human; details: one dose 10 μM
SF-268 (CNS cancer) = experiment: NCI 60-cell one-dose antiproliferative screen; format: cell-based, human; details: one dose 10 μM
PC-3 (prostate cancer) = experiment: NCI 60-cell one-dose antiproliferative screen; format: cell-based, human; details: one dose 10 μM
RPMI-8226 (leukemia) = experiment: NCI 60-cell one-dose antiproliferative screen; format: cell-based, human; details: one dose 10 μM
A498 (renal cancer) = experiment: NCI 60-cell one-dose antiproliferative screen; format: cell-based, human; details: one dose 10 μM
[9] = system: NCI/ADR-RES (ovarian cancer); experiment: NCI 60-cell one-dose antiproliferative screen; format: cell-based, human; details: one dose 10 μM
T-47D (breast cancer) = experiment: NCI 60-cell one-dose antiproliferative screen; format: cell-based, human; details: one dose 10 μM
SK-OV-3 (ovarian cancer) = experiment: NCI 60-cell one-dose antiproliferative screen; format: cell-based, human; details: one dose 10 μM
OVCAR-4 (ovarian cancer) = experiment: NCI 60-cell one-dose antiproliferative screen; format: cell-based, human; details: one dose 10 μM
DU-145 (prostate cancer) = experiment: NCI 60-cell one-dose antiproliferative screen; format: cell-based, human; details: one dose 10 μM
KM12 (colon cancer) = experiment: NCI 60-cell one-dose antiproliferative screen; format: cell-based, human; details: one dose 10 μM
SNB-75 (CNS cancer) = experiment: NCI 60-cell one-dose antiproliferative screen; format: cell-based, human; details: one dose 10 μM
SW-620 (colon cancer) = experiment: NCI 60-cell one-dose antiproliferative screen; format: cell-based, human; details: one dose 10 μM
M14 (melanoma) = experiment: NCI 60-cell one-dose antiproliferative screen; format: cell-based, human; details: one dose 10 μM
SK-MEL-28 (melanoma) = experiment: NCI 60-cell one-dose antiproliferative screen; format: cell-based, human; details: one dose 10 μM
HOP-92 (NSC lung cancer) = experiment: NCI 60-cell one-dose antiproliferative screen; format: cell-based, human; details: one dose 10 μM
MDA-MB-435 (melanoma) = experiment: NCI 60-cell one-dose antiproliferative screen; format: cell-based, human; details: one dose 10 μM
COLO-205 (colon cancer) = experiment: NCI 60-cell one-dose antiproliferative screen; format: cell-based, human; details: one dose 10 μM
CAKI-1 (renal cancer) = experiment: NCI 60-cell one-dose antiproliferative screen; format: cell-based, human; details: one dose 10 μM
SF-539 (CNS cancer) = experiment: NCI 60-cell one-dose antiproliferative screen; format: cell-based, human; details: one dose 10 μM
U251 (CNS cancer) = experiment: NCI 60-cell one-dose antiproliferative screen; format: cell-based, human; details: one dose 10 μM
HOP-62 (NSC lung cancer) = experiment: NCI 60-cell one-dose antiproliferative screen; format: cell-based, human; details: one dose 10 μM
IGROV1 (ovarian cancer) = experiment: NCI 60-cell one-dose antiproliferative screen; format: cell-based, human; details: one dose 10 μM
MALME-3M (melanoma) = experiment: NCI 60-cell one-dose antiproliferative screen; format: cell-based, human; details: one dose 10 μM
SN12C (renal cancer) = experiment: NCI 60-cell one-dose antiproliferative screen; format: cell-based, human; details: one dose 10 μM
[10] = system: NCI-H460 (NSC lung cancer); experiment: NCI 60-cell one-dose antiproliferative screen; format: cell-based, human; details: one dose 10 μM

Cc1cc(C)n(-c2ccc3nnc(-c4ccccc4)n3n2)n1 [Compound 5, 6-(3,5-dimethyl-1H-pyrazol-1-yl)-3-phenyl-[1,2,4]triazolo[4,3-b]pyridazine]
22.70%: GI% (LOX IMIV (melanoma))
25.34%: GI% [6]
demolished cytotoxicity: cytotoxic activity in words ([1]; NCI-60 panel, one dose 10 μM)
25.28%: GI% (CAKI-1 (renal cancer))
>100%: GI% (UO-31 (renal cancer))
< 0%: inhibition at 10 µM ([1]; Homo sapiens, 60 cell, read-out: Mean inhibition (mean GI%))
23.93%: GI% [9]
— (— GI% is below 15%): GI% (OVCAR-5 (ovarian cancer)) | GI% [2] | GI% (HCT-116 (colon cancer)) | GI% [3] | GI% (786-0 (renal cancer)) | GI% (SNB-19 (CNS cancer)) | GI% (RXF 393 (renal cancer)) | GI% (OVCAR-8 (ovarian cancer)) | GI% [4] | GI% (EKVX (NSC lung cancer)) | GI% (HCT-15 (colon cancer)) | GI% (TK-10 (renal cancer)) | GI% [5] | GI% (HT29 (colon cancer)) | GI% (UACC-257 (melanoma)) | GI% [7] | GI% (ACHN (renal cancer)) | GI% (UACC-62 (melanoma)) | GI% (SK-MEL-2 (melanoma)) | GI% (OVCAR-3 (ovarian cancer)) | GI% [8] | GI% (HS 578T (breast cancer)) | GI% (MCF7 (breast cancer)) | GI% (CCRF-CEM (leukemia)) | GI% (SF-295 (CNS cancer)) | GI% (HCC-2998 (colon cancer)) | GI% (SF-268 (CNS cancer)) | GI% (PC-3 (prostate cancer)) | GI% (RPMI-8226 (leukemia)) | GI% (A498 (renal cancer)) | GI% (T-47D (breast cancer)) | GI% (SK-OV-3 (ovarian cancer)) | GI% (OVCAR-4 (ovarian cancer)) | GI% (DU-145 (prostate cancer)) | GI% (KM12 (colon cancer)) | GI% (SNB-75 (CNS cancer)) | GI% (SW-620 (colon cancer)) | GI% (M14 (melanoma)) | GI% (SK-MEL-28 (melanoma)) | GI% (HOP-92 (NSC lung cancer)) | GI% (MDA-MB-435 (melanoma)) | GI% (COLO-205 (colon cancer)) | GI% (SF-539 (CNS cancer)) | GI% (U251 (CNS cancer)) | GI% (HOP-62 (NSC lung cancer)) | GI% (IGROV1 (ovarian cancer)) | GI% (MALME-3M (melanoma)) | GI% (SN12C (renal cancer)) | GI% [10]
